# Results published in publication PMC7899551, “Phase 1 study of Z-endoxifen in patients with advanced gynecologic, desmoid, and hormone receptor-positive solid tumors” (Oncotarget, 2021).
# Key:
# ERα = biological target: T1, ERα (Homo sapiens, UniProt P03372); test: 18F-FES PET/CT imaging (blocking estrogen receptor binding); assay type: in vivo; conditions: after 1–5 days of oral treatment
# T1 construct: from tissue; host or cells: patients' tumors in vivo, e.g. a pre-sacral soft tissue lesion of serous ovarian cancer
# T1 sequence (P03372 1-595): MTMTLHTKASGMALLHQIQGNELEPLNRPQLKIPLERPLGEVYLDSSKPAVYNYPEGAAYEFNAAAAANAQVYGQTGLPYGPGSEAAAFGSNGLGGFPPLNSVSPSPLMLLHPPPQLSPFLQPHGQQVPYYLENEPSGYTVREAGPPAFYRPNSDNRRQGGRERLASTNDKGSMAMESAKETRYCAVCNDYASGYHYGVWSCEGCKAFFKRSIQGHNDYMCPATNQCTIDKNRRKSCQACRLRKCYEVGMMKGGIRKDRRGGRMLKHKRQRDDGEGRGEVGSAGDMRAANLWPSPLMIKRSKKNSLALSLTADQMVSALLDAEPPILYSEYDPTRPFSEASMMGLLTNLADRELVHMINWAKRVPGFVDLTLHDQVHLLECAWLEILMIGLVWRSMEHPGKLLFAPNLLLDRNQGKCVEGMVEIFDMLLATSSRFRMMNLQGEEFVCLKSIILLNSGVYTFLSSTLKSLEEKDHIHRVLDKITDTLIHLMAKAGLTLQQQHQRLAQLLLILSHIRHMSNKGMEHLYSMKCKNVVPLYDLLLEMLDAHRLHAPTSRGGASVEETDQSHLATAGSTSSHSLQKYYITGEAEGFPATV
# Experimental: The pharmacodynamic effect of Z-endoxifen, blocking estrogen receptor binding, was assessed by ^18F-FES PET/CT imaging. […] Twenty patients in this trial agreed to be screened by ^18F-FES PET/CT imaging to assess ER status. Ten patients who were positive prior to treatment were re-imaged from 1 to 5 days after treatment initiation. We present here images taken after 3 days of treatment from a patient with serous ovarian cancer whose imaging has not previously been reported (patient 40, DL8, Figure 2). […] This patient developed a bowel obstruction during cycle 1 attributed to their disease and chose to come off study. Other images from patients in this trial have been previously reported.
# The uptake of ^18F-FES was measured using PET/CT imaging in patients enrolled in the present trial before and after 1–5 days of treatment with oral Z-endoxifen HCl as previously described. Five additional patients were scanned following the publication of the imaging approach. The images presented here are from one of these 5 patients.
# [1] = Safety: adverse events (CTCAE v4.0), DLT, MTD; assay type: in vivo
# Experimental: This was an open-label trial of Z-endoxifen in patients with advanced solid tumors (https://clinicaltrials.gov/ identifier: NCT01273168). Z-endoxifen-HCl was supplied by the Pharmaceutical Management Branch, National Cancer Institute, as 20 and 40 mg capsules; agent was administered orally once daily on a continuous schedule in 28-day cycles with a starting dose of 20 mg/day taken either 1 hour before or 2 hours after meals. Dose escalation followed a traditional 3+3 design in which patients were dose-escalated to the next dose level (DL) in cohorts of 3 patients until dose-limiting toxicity (DLT) was observed. […] Eight dose levels (DL1-8) were examined: 20, 40, 60, 100, 140, 200, 280, and 360 mg, respectively. Two patients at DL8 received the free base form of Z-endoxifen on day 1 rather than the hydrochloride salt to assess the pharmacokinetics of that formulation.
# Toxicities were graded using Common Terminology Criteria for Adverse Events (CTCAE) version 4.0. Toxicities were required to resolve to grade 2 or below prior to initiation of the next cycle. Occurrence of a DLT was to result in a dose reduction following resolution to grade ≤ 2. No more than 2 dose reductions were allowed per patient on study. The MTD was defined as the highest dose level at which no more than 1 in 6 patients experienced a DLT.
compound,measurement,setting,value
CC/C(=C(\c1ccc(O)cc1)c1ccc(OCCNC)cc1)c1ccccc1 [Z-endoxifen],18F-FES tracer uptake on PET/CT,ERα,FES tracer uptake could be reduced
same,"Anemia, grade 2","[1]; DL2 40 mg, n = 6",1 patients
same,"Elevated ALT, grade 2","[1]; DL2 40 mg, n = 6",1 patients
same,"Fatigue, grade 2","[1]; DL2 40 mg, n = 6",1 patients
same,"Lymphopenia, grade 2","[1]; DL2 40 mg, n = 6",3 patients
same,"Mucositis (oral), grade 2","[1]; DL2 40 mg, n = 6",1 patients
same,"Thromboembolic event, grade 2","[1]; DL2 40 mg, n = 6",1 patients
same,"Thromboembolic event, grade 4","[1]; DL2 40 mg, n = 6",1 patients
same,"Vestibular disorder, grade 2","[1]; DL2 40 mg, n = 6",1 patients
same,DLT,"[1]; DL2 (40 mg/day), patient 4",grade 4 pulmonary embolism
same,"Anemia, grade 2","[1]; DL3 60 mg, n = 3",1 patients
same,"Leukopenia, grade 2","[1]; DL3 60 mg, n = 3",1 patients
same,"Neutropenia, grade 2","[1]; DL3 60 mg, n = 3",1 patients
same,"Anemia, grade 2","[1]; DL4 100 mg, n = 3",1 patients
same,"Lymphopenia, grade 2","[1]; DL4 100 mg, n = 3",1 patients
same,"Fatigue, grade 2","[1]; DL5 140 mg, n = 3",1 patients
same,"Leukopenia, grade 2","[1]; DL5 140 mg, n = 3",1 patients
same,"Neutropenia, grade 2","[1]; DL5 140 mg, n = 3",1 patients
same,"Reflux, grade 2","[1]; DL5 140 mg, n = 3",1 patients
same,"Fatigue, grade 2","[1]; DL6 200 mg, n = 3",1 patients
same,"Hypertension, grade 2","[1]; DL6 200 mg, n = 3",1 patients
same,"Abdominal pain, grade 3","[1]; DL7 280 mg, n = 7",1 patients
same,"Anemia, grade 2","[1]; DL7 280 mg, n = 7",2 patients
same,"Diarrhea, grade 3","[1]; DL7 280 mg, n = 7",1 patients
same,"Elevated ALT, grade 2","[1]; DL7 280 mg, n = 7",1 patients
same,"Elevated ALT, grade 3","[1]; DL7 280 mg, n = 7",1 patients
same,"Elevated AST, grade 2","[1]; DL7 280 mg, n = 7",1 patients
same,"Fatigue, grade 2","[1]; DL7 280 mg, n = 7",1 patients
same,"Hypophosphatemia, grade 2","[1]; DL7 280 mg, n = 7",1 patients
same,"Hypophosphatemia, grade 4","[1]; DL7 280 mg, n = 7",1 patients
same,"Lymphopenia, grade 2","[1]; DL7 280 mg, n = 7",1 patients
same,DLT,"[1]; DL7 (280 mg/day), patient 22",grade 3 ALT elevation
same,"Anemia, grade 2","[1]; DL8 360 mg, n = 12",4 patients
same,"Anemia, grade 3","[1]; DL8 360 mg, n = 12",1 patients
same,"Colonic perforation, grade 4","[1]; DL8 360 mg, n = 12",1 patients
same,"Constipation, grade 2","[1]; DL8 360 mg, n = 12",1 patients
same,"Dehydration, grade 3","[1]; DL8 360 mg, n = 12",1 patients
same,"Dyspepsia, grade 2","[1]; DL8 360 mg, n = 12",1 patients
same,"Elevated ALT, grade 2","[1]; DL8 360 mg, n = 12",2 patients
same,"Elevated ALT, grade 3","[1]; DL8 360 mg, n = 12",1 patients
same,"Elevated AST, grade 2","[1]; DL8 360 mg, n = 12",1 patients
same,"Fatigue, grade 2","[1]; DL8 360 mg, n = 12",1 patients
same,"Hyponatremia, grade 3","[1]; DL8 360 mg, n = 12",1 patients
same,"Hypophosphatemia, grade 2","[1]; DL8 360 mg, n = 12",2 patients
same,"Hypophosphatemia, grade 3","[1]; DL8 360 mg, n = 12",2 patients
same,"Leukopenia, grade 2","[1]; DL8 360 mg, n = 12",1 patients
same,"Lymphopenia, grade 2","[1]; DL8 360 mg, n = 12",5 patients
same,"Lymphopenia, grade 3","[1]; DL8 360 mg, n = 12",1 patients
same,"Nausea, grade 2","[1]; DL8 360 mg, n = 12",1 patients
same,"Rash, grade 2","[1]; DL8 360 mg, n = 12",1 patients
same,"Stroke, grade 2","[1]; DL8 360 mg, n = 12",1 patients
same,"Thromboembolic event, grade 2","[1]; DL8 360 mg, n = 12",1 patients
same,"adverse event at end of cycle 1, disease most likely cause","[1]; DL8 (360 mg), patient with fallopian tube carcinoma",grade 4 colonic perforation
same,grade 4 adverse events potentially related to the study agent,[1]; all dose levels,Three grade 4 adverse events
same,"anemia, grade ≥ 2 (grades 2 and 3), study-related",[1]; of 40 patients enrolled,10 patients
same,"lymphopenia, grade ≥ 2 (grades 2 and 3), study-related",[1]; of 40 patients enrolled,11 patients
same,tolerability,"[1]; oral daily, 20-360 mg/day",generally well tolerated
same,maximum tolerated dose,"[1]; oral daily, up to 360 mg/day",No maximum tolerated dose was established
